“Also recorded” adds a separate entry of the source. Square brackets hold non-standard residues; d marks the D form. Peptide text beside a SMILES is read from it. hArg = N=C(N)NCCCC[C@H](N)C(=O)O; Aib = CC(C)(N)C(=O)O
Key:
[1] = target: T1, P1R-delNt, truncated human P1R deleted for residues (24-181) (Homo sapiens, UniProt Q03431); test: Competition binding in COS-7 cells expressing hP1R-delNt; details: for Binding IC50 / IC50: COS-7 cells, hP1R-delNT, tracer 125I-[Aib^1,3,M]PTH(1-21), N.B. = no inhibition of tracer binding
T1 construct: expressed in transfected cells; host or cells: COS-7 (transient, FuGENE 6)
T1 sequence (Q03431 with tags, fused parts or gaps limits assumed): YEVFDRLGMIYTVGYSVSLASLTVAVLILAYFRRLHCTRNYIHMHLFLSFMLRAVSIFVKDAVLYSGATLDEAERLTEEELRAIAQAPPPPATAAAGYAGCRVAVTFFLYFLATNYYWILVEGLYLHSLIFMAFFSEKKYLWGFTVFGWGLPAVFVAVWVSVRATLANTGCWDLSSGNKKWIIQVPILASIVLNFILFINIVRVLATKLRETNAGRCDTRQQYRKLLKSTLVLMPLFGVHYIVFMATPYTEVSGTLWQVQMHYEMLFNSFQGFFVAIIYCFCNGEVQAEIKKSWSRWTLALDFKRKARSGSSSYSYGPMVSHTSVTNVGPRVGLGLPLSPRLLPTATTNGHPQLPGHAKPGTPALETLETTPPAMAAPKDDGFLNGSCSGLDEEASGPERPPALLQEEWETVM

[2] = test system: embryonic mouse metatarsals; test: Inhibition of chondrocyte differentiation in embryonic mouse metatarsals (explant assay); assay type: cell-based; details: for effect on mineralization / chondrocyte differentiation: E15.5 mouse metatarsals, 48 h treatment, PTH(1-34) 0.1 μM, [Aib^1,3,M]PTH(1-14) 1 μM, native PTH(1-14) 2 μM; for expression of the collagen X gene (mRNA in situ hybridization): explanted metatarsals, data not shown
Protocol: Inhibition of Chondrocyte Differentiation in Embryonic Mouse Metatarsals. Metatarsals from embryonic day (E) 15.5 mouse embryos were excised and cultured in a 37° C. humidified incubator (5% CO2) in serum -free αXMEM media in 24 well plates. Sixteen hours later, a PTH analog or vehicle was added, and the samples were incubated for an additional 48 h in 37° C. with peptide or vehicle added again at the 24 h time point. At the end of the 64 h incubation period, the samples were fixed with 10% formalin/phosphate-buffered saline, then directly visualized on a dissecting microscope using white light. Sections were processed for in-situ hybridization analysis using ^35S-labeled riboprobes specific for collagen type X mRNA, a developmental marker gene expressed only in hypertrophic chrondrocytes of the growth plate.
Whether or not [Aib^1,3,M]PTH(1-14) activity could be detected in a more intact bone system was studied in an explant assay. An explant assay utilized cartilaginous metatarsal rudiments isolated from E15.5mouse embryos and subsequently cultured in multi-well plates containing serum-free media. A PTH peptide analog or vehicle control, was added to the culture 16 h after explantion, then again at 24 h. The incubation was terminated 24 h later for a total of 48 h of treatment over a 64 h period. In the absence of PTH, chondrocyte differentation occurred, such that by the end of the experiment, dense mineralization was apparent at the bone's mid-section (FIG. 5A). […] These inhibitory effects were consistent with the known capacity of PTHRP to retard chondrocyte differentiation in the growth plate cartilage of developing long bones (Pellegrini, M., et al., Biochemistry 37:12737-12743 (1998)).

[3] = target: T2, wild-type human P1R (hP1R-WT) (Homo sapiens, UniProt Q03431); test: Stimulation of inositol phosphate production (PLC) in COS-7 cells expressing hP1R-WT; assay type: cell-based; details: for PLC EMAX(obs.) / EC50: hP1R-WT; for EC50: dash = no PLC response observed
T2 construct: expressed in transfected cells; host or cells: COS-7 (transient, FuGENE 6)
T2 sequence (Q03431 27-593): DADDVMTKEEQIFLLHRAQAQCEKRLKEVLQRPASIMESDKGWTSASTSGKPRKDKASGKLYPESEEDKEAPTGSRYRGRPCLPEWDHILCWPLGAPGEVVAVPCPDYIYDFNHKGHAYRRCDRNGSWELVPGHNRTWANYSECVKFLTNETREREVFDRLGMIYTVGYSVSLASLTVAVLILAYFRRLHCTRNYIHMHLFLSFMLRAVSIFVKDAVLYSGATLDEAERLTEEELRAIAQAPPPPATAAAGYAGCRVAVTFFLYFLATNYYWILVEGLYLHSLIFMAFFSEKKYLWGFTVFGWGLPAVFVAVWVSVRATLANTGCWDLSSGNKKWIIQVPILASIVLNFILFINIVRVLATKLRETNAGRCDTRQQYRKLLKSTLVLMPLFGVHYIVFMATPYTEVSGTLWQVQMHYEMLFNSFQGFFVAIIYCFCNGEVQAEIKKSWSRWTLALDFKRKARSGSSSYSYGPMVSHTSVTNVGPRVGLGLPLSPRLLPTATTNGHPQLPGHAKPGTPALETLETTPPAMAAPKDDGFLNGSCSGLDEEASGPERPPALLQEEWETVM
Protocol: Cell Culture. The cell line HKRK-B28 (Takasu, H., et al., J. Bone Miner. Res. 14:11-20 (1999)) was derived from the porcine kidney cell line, LLC-PK1 by stable transfection with plasmid DNA encoding the human P1R and expresses ˜280,000 receptors per cell. These cells, as well as COS-7 cells and SaOS-2-B10 cells, were cultured at […] in T-75 flasks ([…]) in Dulbecco's modified Eagle's medium (DMEM) supplemented with fetal bovine serum (10%), penicillin G (20 units/ml), streptomycin sulfate (20 μg/ml) and amphotericin B (0.05 μg/ml) in a humidified atmosphere containing 5% CO2. Stock solutions of EGTA/trypsin and antibiotics were from GIBCO; fetal bovine serum was from Hyclone Laboratories (Logan, Utah). COS-7 cells sub-cultured in 24-well plates were transfected with plasmid DNA (200 ng per well) encoding the wild-type human P1R or truncated human P1R deleted for residues (24-181) (Shimizu, M., et al., J. Biol. Chem. 275:21836-21843 (2000)) that was purified by cesium chloride/ethidium bromide density gradient centrifugation, and FuGENE 6 transfection reagent (Roche Indianapolis Ind.) according to the manufacturer's recommended procedure. All cells, in 24-well plates, were treated with fresh media and shifted to 33° C. for 12 to 24 h prior to assay.
Stimulation of Inositol Phosphate Production. COS-7 cells transfected as above with P1R-WT were treated with serum-free, inositol-free DMEM containing 0.1% bovine serum albumin and [^3H]myo-inositol (NEN, Boston, Mass.) (2 μCi/mL) for 16 h prior to assay. At the time of the assay, the cells were rinsed with binding buffer containing LiCl (30 mM) and treated with the same buffer with or without a PTH analog. The cells were then incubated at 37° C. for 40 min, after which the buffer was removed and replaced by 0.5 mL of ice cold 5% trichloroacetic acid solution. After 3 h on ice, the lysate was collected and extracted twice with ethyl ether. The lysate was then applied to an ion exchange column (0.5 mL resin bed) and the total inositol phosphates were eluted as described previously (Berridge, M. J., et al., Biochem. J. 212:473-482 (1983)), and counted in liquid scintillation cocktail.

Binding IC50 [1] | increase in IP formation ([3]; P1R-WT) [fold] | PLC EMAX(obs.) [3] [foldxbasal] | EC50 [3] [nM] | IC50 [1] [nM] | Molecule | effect on mineralization / chondrocyte differentiation [2] | expression of the collagen X gene (mRNA in situ hybridization) [2] | other results
N.B. |  |  |  |  | CC[C@H](C)[C@H](NC(=O)[C@H](CCC(=O)O)NC(=O)C(C)(C)NC(=O)[C@@H](NC(=O)C(C)(C)N)C(C)C)C(=O)N[C@@H](CCC(N)=O)C(=O)N[C@@H](CC(C)C)C(=O)N[C@@H](CCSC)C(=O)N[C@@H](Cc1c[nH]cn1)C(=O)N[C@@H](CCC(N)=O)C(N)=O [[Aib^1,3,M]PTH(1-10), [Aib^1,3,Gln^10]PTH(1-10)] (H-[Aib]V[Aib]EIQLMHQ-NH2) |  |  | 
N.B. |  |  |  |  | H-AVSEIQLMHNLGKH-NH2 [PTH(1-14), reference compound] | no effect could be detected; also recorded: mineralization can be detected |  | Binding IC50 ([1]; listed as native PTH(1-14)): failed to inhibit tracer binding
effectively inhibited the binding | 4 | 4.3 ± 0.6 | 71 ± 9 | ~1500 | CC[C@H](C)[C@H](NC(=O)[C@H](CCC(=O)O)NC(=O)C(C)(C)NC(=O)[C@@H](NC(=O)C(C)(C)N)C(C)C)C(=O)N[C@@H](CCC(N)=O)C(=O)N[C@@H](CC(C)C)C(=O)N[C@@H](CCSC)C(=O)N[C@@H](Cc1c[nH]cn1)C(=O)N[C@@H](CCC(N)=O)C(=O)N[C@@H](CCCCNC(=N)N)C(=O)N[C@@H](C)C(=O)N[C@@H](CCCCN)C(=O)N[C@@H](Cc1c[nH]c2ccccc12)C(N)=O [[Aib^1,3,M]PTH(1-14), AibValAibGluIleGlnLeuMetHisGlnHarAlaLysTrp] (H-[Aib]V[Aib]EIQLMHQ[hArg]AKW-NH2) | no mineralization was observed; also recorded: inhibited mineralization | inhibited expression of the collagen X gene | PLC potency, fold more potent than [M]PTH(1-14) ([3]; P1R-WT): 66 fold; binding affinity, fold stronger than [M]PTH(1-14) ([1]; P1R-delNt): ~10 fold; difference in affinity between [Aib^1,3,M]PTH(1-14) and [Aib^1,3,M]PTH(1-21) ([1]; P1R-delNt): 50 fold
N.B. | 4 | 4.2 ± 0.6 | 17 ± 2 |  | CCCC[C@H](NC(=O)[C@H](CCCNC(=N)N)NC(=O)[C@H](CCC(=O)O)NC(=O)[C@@H](NC(=O)[C@H](CO)NC(=O)[C@H](C)NC(=O)[C@H](CC(C)C)NC(=O)[C@H](Cc1c[nH]cn1)NC(=O)[C@H](CCCCN)NC(=O)CNC(=O)[C@H](CC(C)C)NC(=O)[C@H](CC(N)=O)NC(=O)[C@H](Cc1c[nH]cn1)NC(=O)[C@H](CCCC)NC(=O)[C@H](CC(C)C)NC(=O)[C@H](CCC(N)=O)NC(=O)[C@@H](NC(=O)[C@H](CCC(=O)O)NC(=O)[C@H](CO)NC(=O)[C@@H](NC(=O)[C@H](C)N)C(C)C)[C@@H](C)CC)C(C)C)C(=O)N[C@@H](CCC(N)=O)C(=O)N[C@@H](Cc1c[nH]c2ccccc12)C(=O)N[C@@H](CC(C)C)C(=O)N[C@@H](CCCNC(=N)N)C(=O)N[C@@H](CCCCN)C(=O)N[C@@H](CCCCN)C(=O)N[C@@H](CC(C)C)C(=O)N[C@@H](CCC(N)=O)C(=O)N[C@@H](CC(=O)O)C(=O)N[C@H](C(=O)N[C@@H](Cc1c[nH]cn1)C(=O)N[C@@H](CC(N)=O)C(=O)N[C@@H](Cc1ccc(O)cc1)C(N)=O)C(C)C [PTH(1-34), [Nle^8,21, Tyr^34]PTH(1-34)amide, reference compound] | no mineralization was observed; also recorded: inhibited mineralization | inhibited expression of the collagen X gene | 
 | 4 | 3.9 ± 0.5 |  |  | CC[C@H](C)[C@H](NC(=O)[C@H](CCC(=O)O)NC(=O)[C@H](C)NC(=O)[C@@H](NC(=O)[C@H](C)N)C(C)C)C(=O)N[C@@H](CCC(N)=O)C(=O)N[C@@H](CC(C)C)C(=O)N[C@@H](CCSC)C(=O)N[C@@H](Cc1c[nH]cn1)C(=O)N[C@@H](CCC(N)=O)C(=O)N[C@@H](CCCCNC(=N)N)C(=O)N[C@@H](C)C(=O)N[C@@H](CCCCN)C(=O)N[C@@H](Cc1c[nH]c2ccccc12)C(N)=O [[M]PTH(1-14), [Ala^3,12,Gln^10,Har^11,Trp^14]PTH(1-14)amide, reference compound] (H-AVAEIQLMHQ[hArg]AKW-NH2) |  |  | 
 |  |  |  | 13000 | CC[C@H](C)[C@H](NC(=O)[C@H](CCC(=O)O)NC(=O)C(C)(C)NC(=O)[C@@H](NC(=O)C(C)(C)N)C(C)C)C(=O)N[C@@H](CCC(N)=O)C(=O)N[C@@H](CC(C)C)C(=O)N[C@@H](CCSC)C(=O)N[C@@H](Cc1c[nH]cn1)C(=O)N[C@@H](CCC(N)=O)C(=O)N[C@@H](CCCCNC(=N)N)C(N)=O [[Aib^1,3,M]PTH(1-11), AibValAibGluIleGlnLeuMetHisGlnHar] (H-[Aib]V[Aib]EIQLMHQ[hArg]-NH2) |  |  | 

Reference: patent US7572765B2, “Conformationally constrained parathyroid hormone (PTH) analogs” (The General Hospital Corporation, priority 2001, dated 2009)
